Data set [1] relates to H2O2-induced reactive oxygen species generation. Description: DCF-DA staining, H2O2-induced reactive oxygen species generation (Experimental Example 3). In kind it is cell-based. As to conditions: for Number of fluorescent cells (Cell number): DCF-DA, untreated 15, H2O2 only 255. The procedure:
To investigate the inhibitory effect of the compound prepared in Embodiment 1 on H2O2-induced reactive oxygen species generation, DCF-DA staining was performed, and the results are shown in Table 3, FIG. 4, and FIG. 5 below. In the experiment, […] were seeded at a density of 2×10^5 cells per dish in a 35 pi dish and incubated for 24 hours. Subsequently, the cells were treated with the compound prepared in Embodiment 1 and further incubated for 24 hours. After 10 minutes of loading with 5 mM DCF-DA, the cells were examined under a fluorescence microscope, and the number of DCF-DA fluorescent cells was counted using Image J.

Data set [2] concerns HaCaT cells. Put plainly: antioxidant effect against H2O2 oxidative toxicity (Experimental Example 2). Type of data set: cell-based, human. Particulars: for Number of fluorescent cells (Cell number): untreated 15, H2O2 only 255.
The subject of data set [3] is human keratinocytes (HaCaT cells). Description: WST-1 assay, cytotoxicity / skin irritation (Experimental Example 1). In kind it is cell-based. As to conditions: for Cell Viability: 24 hours, HaCaT cells, untreated = 100%. The procedure: To confirm whether the compound prepared in Embodiment 1 causes toxicity in skin cells and induces skin irritation, a WST-1 assay was conducted, and the results are shown in Table 1 and FIG. 2 below. In the experiment, human keratinocytes (HaCaT cells) were seeded at a density of 1×10^4 cells per well in a 96-well plate with DMEM (Dulbecco's Modified Eagle Medium) containing 10% FBS (Fetal Bovine Serum) and 1% Antibiotic-Antimycotic, and incubated for 24 hours in a constant temperature chamber at 37° C. with 5% CO2. Subsequently, the cells were treated with the compound prepared in Embodiment 1 and incubated for an additional 24 hours.
A general note: Tetrazolium assays rely on reduction of a dye to a coloured formazan, in cell work by metabolically active cells.

[4] abbreviates: various concentrations, compared to positive control group (H2O2 treatment).

With `O=C1O[C@H]([C@@H](O)CO)C(O)=C1O` [Ascorbic acid, reference compound], the “Number of fluorescent cells (Cell number)” value (“Number of fluorescent cells” below) in data set [1] (H2O2 + substance 10 uM) and in data set [2] (H2O2 1 mM + substance 10 uM) was 170 Cell number throughout.
Regarding `O=C(O)/C=C/c1ccc(O)c(O)c1` [Caffeic acid, reference compound], the “Number of fluorescent cells” value in data set [1] (H2O2 + substance 10 uM) and in data set [2] (H2O2 1 mM + substance 10 uM) was 250 Cell number throughout.
For the compound `O=C(/C=C/c1ccc(O)c(O)c1)OCc1ccc(OC(=O)/C=C/c2ccc(O)c(O)c2)cc1` [Embodiment 1, 4-(((E)-3-(3,4-dihydroxyphenyl)acryloyl)oxy)benzyl (E)-3-(3,4-dihydroxyphenyl)acrylate], the “Number of fluorescent cells” value is on record as 60 Cell number in data set [1] (H2O2 + substance 5 uM), 42 Cell number in data set [1] (H2O2 + substance 10 uM), 60 Cell number in data set [2] (H2O2 1 mM + substance 5 uM) and 42 Cell number in data set [2] (H2O2 1 mM + substance 10 uM). Also, the “increase in reactive oxygen species caused by H2O2 treatment” value in data set [1] (setting [4]) and in data set [2] (setting [4]) was “significantly reduced” each time. Also, the “Cell Viability” value in data set [3] (5 uM) is given as 95.9%; in data set [3] (10 uM), 118.9%. Besides, the “change in cell viability” value in data set [3] (10 μM treatment) is “cell viability increased”. For the same compound, the “toxicity to Keratinocyte (HaCaT) cells” value in data set [3] (concentrations of 5 and 10 μM) is given as “did not show toxicity”.

The record behind these values is US20250214924A1, “NOVEL COMPOUNDS AND USES THEREOF” (ACTIVON CO., LTD., priority 2022, published 2025).
